From patent US9751885B2, “Cyclopropanamine compound and use thereof” (Takeda Pharmaceutical Company Limited, priority 2012, dated 2017)
Counter-ions that a name gives are not always drawn. Like-named read-outs stand apart in the source and are kept apart here. Marks after values point to notes of the source that are not given here.

Columns and labels:
[1] = system: white blood cell number, red blood cell number, platelet number; assay: Evaluation of blood cell number in mouse; format: in vivo; conditions: oral, Day 2 after administration
Method in brief: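 Male ICR mice dosed orally at 1, 10, 50 or 100 mg/kg (suspension in 0.5% methylcellulose/0.02% citric acid/water); whole blood collected on Day 2. White cell, red cell and platelet counts per unit volume by automated haematology analyser, expressed as % of mean of untreated control group.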

[2] = system: Gad1 H3K4me2 level in rat primary culture neurons; assay: Gad1 H3K4 methylation induction activity in rat primary culture neurons (ChIP-qPCR); format: cell-based; conditions: control without compound = 100%; for activity at 1 µM / activity at 10 µM: Rattus norvegicus, Neuron, 72 h; for activity at 1 µM: read-out: Gad1 H3K4me2 induction activity (%), compound 1 μM, 3 days, rat primary culture neurons; for activity at 10 µM: read-out: Gad1 H3K4me2 induction activity (%), compound 10 μM, 3 days, rat primary culture neurons; for Gad1 H3K4me2 induction activity (%): 3 days, rat primary culture neurons
Method: Gad1 H3K4 Methylation Induction Activity in Rat Primary Culture Neurons
Thereafter, the compound was added to final concentrations of 1 or 10 μM, and the cells were further cultured for 3 days. The culture supernatant was aspirated, ice-cold PBS was added, and the cell suspension was collected on ice using CELL SCRAPER (IWAKI). […] (750 μL). Furthermore, 0.3% NP40/cell lysis buffer 1 (750 μL) was added, and the cells were lysed by incubating for 5 min on ice.
Using the DNA obtained by the chromatin immunoprecipitation as a template, quantitative PCR of the Gad1 gene upstream genomic region was performed, and the measurement value was taken as the Gad1 H3K4me2 level. […] The Gad1 H3K4me2 induction by the compound was expressed by the H3K4me2 level when the compound was added, as compared to the H3K4me2 level of the control (without addition of the compound) as 100%.

[3] = Evaluation of hippocampal distribution in mouse; format: in vivo; conditions: male ICR mice, 10 mg/kg oral
Method in brief: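 Male ICR mice dosed orally at 10 mg/kg as suspension in 0.5% methylcellulose/0.02% citric acid/water. Plasma and hippocampus sampled together at 0.5, 1 or 1.5 h; LC/MS/MS concentrations gave hippocampus/plasma ratio.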

human LSD1(172-833) = human LSD1(172-833) (Homo sapiens (Human), UniProt O60341); assay: Measurement of LSD1 inhibitory activity (time-resolved fluorescence, biotin-histone H3 mono methylated K4 peptide); format: biochemical
Method in brief: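 Remaining signal detected by TR-FRET after 60 min with europium anti-histone H3 antibody and streptavidin-XL665 in potassium fluoride/0.1% BSA.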

MAO-A enzyme = MAO-A enzyme (Homo sapiens (Human), UniProt P21397); assay: Measurement of MAO-A inhibitory activity (MAO-Glo Assay); format: biochemical
Method: The MAO-A inhibitory activity evaluation described below followed the protocol of MAO-Glo (registered trademark) Assay of Promega KK.
A test compound dissolved in 4% DMSO was added by 12.5 μL to 25 μL reaction solution (100 mM HEPES (pH 7.5), 5% glycerol) containing 400 ng of MAO-A enzyme (Sigma-Aldrich Co. LLC.), and the mixture was reacted at room temperature for 10 min. […] After reaction at room temperature for 60 min, Luciferine detection reagent (Promega KK) (50 μL) was added to terminate the reaction. After reaction at room temperature for min with stirring, the luminescence was measured by Envision (PerkinElmer). The MAO-A inhibitory rate (%) of the test compound was calculated by the following formula. inhibitory rate(%)=(1−(test compound count−blank)÷(control−blank))×100
The count of the MAO-A enzyme reaction mixture under compound non-addition conditions is indicated as control, and the count under compound non-addition and MAO-A enzyme non-addition conditions is indicated as blank.

MAO-B enzyme = MAO-B enzyme (Homo sapiens (Human), UniProt P27338); assay: Measurement of MAO-B inhibitory activity (MAO-Glo Assay); conditions: read-out: MAO-B IC50 value;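 further: luminescence read-out, compound preincubated 10 min with enzyme then reacted 60 min at room temperature, inhibition relative to enzyme reaction without compound, blank lacking enzyme and compound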
[4] = hippocampus, 0.5 hr after administration, read-out: hippocampus concentration (mean)
[5] = plasma, 0.5 hr after administration, read-out: plasma concentration (mean)
[6] = hippocampus, 1 hr after administration, read-out: hippocampus concentration (mean)
[7] = plasma, 1 hr after administration, read-out: plasma concentration (mean)

Chain of MAO-A enzyme (P21397 whole entry): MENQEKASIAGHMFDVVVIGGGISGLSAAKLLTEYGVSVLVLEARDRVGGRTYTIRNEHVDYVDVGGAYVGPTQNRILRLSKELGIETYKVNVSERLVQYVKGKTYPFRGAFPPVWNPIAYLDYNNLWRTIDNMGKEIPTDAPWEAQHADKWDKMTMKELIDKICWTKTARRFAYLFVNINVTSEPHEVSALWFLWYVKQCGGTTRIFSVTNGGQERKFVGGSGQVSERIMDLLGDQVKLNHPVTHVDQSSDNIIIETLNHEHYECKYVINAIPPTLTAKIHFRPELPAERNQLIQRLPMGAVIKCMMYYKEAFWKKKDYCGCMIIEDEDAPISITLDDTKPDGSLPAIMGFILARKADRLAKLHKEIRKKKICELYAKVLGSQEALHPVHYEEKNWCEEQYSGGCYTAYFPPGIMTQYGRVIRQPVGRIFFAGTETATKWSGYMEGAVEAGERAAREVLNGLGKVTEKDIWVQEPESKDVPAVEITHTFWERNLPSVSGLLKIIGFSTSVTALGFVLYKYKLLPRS
Chain of MAO-B enzyme (P27338 whole entry): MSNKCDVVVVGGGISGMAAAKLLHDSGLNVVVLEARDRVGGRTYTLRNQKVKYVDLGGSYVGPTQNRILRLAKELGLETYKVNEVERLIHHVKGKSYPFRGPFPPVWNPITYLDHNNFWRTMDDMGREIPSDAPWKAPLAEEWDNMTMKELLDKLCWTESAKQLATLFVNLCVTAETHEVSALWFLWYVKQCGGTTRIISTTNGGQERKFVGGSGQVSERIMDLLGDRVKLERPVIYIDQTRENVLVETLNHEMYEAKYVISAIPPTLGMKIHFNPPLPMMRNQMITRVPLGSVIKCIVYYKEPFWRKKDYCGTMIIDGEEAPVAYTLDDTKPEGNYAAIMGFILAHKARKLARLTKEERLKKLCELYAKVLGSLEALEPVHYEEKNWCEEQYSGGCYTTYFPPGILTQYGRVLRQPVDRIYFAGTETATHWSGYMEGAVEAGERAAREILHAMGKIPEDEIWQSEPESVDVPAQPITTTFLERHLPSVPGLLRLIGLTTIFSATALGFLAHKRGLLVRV

| Structure (SMILES) | platelet number, percentage of compound administration group compared to control group, mean ([1]; 10 mg/kg) | red blood cell number, percentage of compound administration group compared to control group, mean ([1]; 10 mg/kg) | white blood cell number, percentage of compound administration group compared to control group, mean ([1]; 10 mg/kg) | platelet number, percentage of compound administration group compared to control group, mean ([1]; 100 mg/kg) | red blood cell number, percentage of compound administration group compared to control group, mean ([1]; 100 mg/kg) | white blood cell number, percentage of compound administration group compared to control group, mean ([1]; 100 mg/kg) | activity at 1 µM [2] | activity at 10 µM [2] | concentration at 0.5 h [3, 4] | concentration at 0.5 h [3, 5] | IC50 (human LSD1(172-833)) | IC50 (MAO-A enzyme) | IC50 (MAO-B enzyme) | further results |
| --- | --- | --- | --- | --- | --- | --- | --- | --- | --- | --- | --- | --- | --- | --- |
| Cn1cc(NC(=O)c2cccc([C@@H]3C[C@H]3NCC3CC3)c2)cn1 (relative stereo) [Example 59, 3-(trans-2-((cyclopropylmethyl)amino)cyclopropyl)-N-(1-methyl-1H-pyrazol-4-yl)benzamide dihydrochloride] | 91.9% | 101.1% | 128.1% | 91.2% | 93.3% | 98.8% | 206% | 161% | – | – | – | – | – | – |
| Cc1ncc(NC(=O)c2cccc([C@@H]3C[C@H]3NCC3CC3)c2)s1 (relative stereo) [Example 79, 3-(trans-2-((cyclopropylmethyl)amino)cyclopropyl)-N-(2-methyl-1,3-thiazol-5-yl)benzamide dihydrochloride] | 92.4% | 101.1% | 122.4% | 92.8% | 101.6% | 96.3% | – | – | 569 ng/g | 759 ng/mL | < 0.1 µM | > 10 µM | > 10 µM | – |
| O=C(Nc1ccc(N2CCCC2=O)cc1)c1cccc([C@@H]2C[C@H]2NCC2CC2)c1 (relative stereo) [Example 82, 3-(trans-2-((cyclopropylmethyl)amino)cyclopropyl)-N-(4-(2-oxopyrrolidin-1-yl)phenyl)benzamide hydrochloride] | 104.6% | 100.5% | 81.2% | 94.6% | 99.9% | 135.5% | – | – | 58 ng/g | 5610 ng/mL | < 0.1 µM | > 10 µM | > 10 µM | – |
| O=C(Nc1cnn(CC2CC2)c1)c1cccc([C@@H]2C[C@H]2NCC2CCOCC2)c1 (relative stereo) [Example 87, N-(1-(cyclopropylmethyl)-1H-pyrazol-4-yl)-3-(trans-2-((tetrahydro-2H-pyran-4-ylmethyl)amino)cyclopropyl)benzamide dihydrochloride] | 111.7% | 96.8% | 94.6% | 105.2% | 100.7% | 101.1% | – | – | – | – | < 0.1 µM | > 10 µM | > 10 µM | concentration at 1 h [3, 6]: 43 ng/g; concentration at 1 h [3, 7]: 251 ng/mL |
| Cn1cc(NC(=O)c2cccc([C@@H]3C[C@H]3NCC(C)(C)C)c2)cn1 (relative stereo) [Example 155, 3-(trans-2-((2,2-dimethylpropyl)amino)cyclopropyl)-N-(1-methyl-1H-pyrazol-4-yl)benzamide dihydrochloride] | – | – | – | – | – | – | 104% | 106% | – | – | – | – | – | – |
| Cc1nnc(NC(=O)c2cccc([C@@H]3C[C@H]3NC3CCC(F)(F)CC3)c2)s1 (relative stereo) [Example 166, 3-(trans-2-((4,4-difluorocyclohexyl)amino)cyclopropyl)-N-(5-methyl-1,3,4-thiadiazol-2-yl)benzamide dihydrochloride] | – | – | – | – | – | – | 98% | 147% | – | – | – | – | – | – |
| Cc1nnc(NC(=O)c2ccc(C)c([C@@H]3C[C@H]3NC3CCOCC3)c2)s1 (relative stereo) [Example 184, 4-methyl-N-(5-methyl-1,3,4-thiadiazol-2-yl)-3-(trans-2-(tetrahydro-2H-pyran-4-ylamino)cyclopropyl)benzamide dihydrochloride] | – | – | – | – | – | – | 136% | 122% | – | – | – | – | – | – |
| Cc1cc(NC(=O)c2cccc([C@@H]3C[C@H]3NCC3CCOCC3)c2)no1 (relative stereo) [Example 231, N-(5-methyl-1,2-oxazol-3-yl)-3-(trans-2-((tetrahydro-2H-pyran-4-ylmethyl)amino)cyclopropyl)benzamide] | 93.7% | 99.7% | 75.7% | 90.4% | 95.0% | 77.1% | – | – | – | – | < 0.1 µM | > 10 µM | > 10 µM | concentration at 1 h [3, 6]: 527 ng/g; Kp at 1 h ([3]; hippocampus/plasma, 1 hr after administration, read-out: hippocampus/plasma concentration ratio (mean)): 4.5; concentration at 1 h [3, 7]: 117 ng/mL |
| Cn1cc(NC(=O)c2ccc(F)c([C@@H]3C[C@H]3NCC3CC3)c2)cn1 (relative stereo) [Example 237, 3-(trans-2-((cyclopropylmethyl)amino)cyclopropyl)-4-fluoro-N-(1-methyl-1H-pyrazol-4-yl)benzamide dihydrochloride] | 90.3% | 98.8% | 83.9% | 91.9% | 96.5% | 86.7% | – | – | 237 ng/g | 523 ng/mL | < 0.1 µM | > 10 µM | > 10 µM | – |
| O=C(NC1CC(F)(F)C1)c1ccc(F)c([C@@H]2C[C@H]2NCC2CC2)c1 (relative stereo) [Example 240, 3-(trans-2-((cyclopropylmethyl)amino)cyclopropyl)-N-(3,3-difluorocyclobutyl)-4-fluorobenzamide hydrochloride] | 90.7% | 95.5% | 82.3% | 94.7% | 98.7% | 109.4% | – | – | 329 ng/g | 247 ng/mL | < 0.1 µM | > 10 µM | > 10 µM | Kp at 0.5 h ([3]; hippocampus/plasma, 0.5 hr after administration, read-out: hippocampus/plasma concentration ratio (mean)): 1.31 |
| Cc1nnc(NC(=O)c2cccc(C3CC3NCC3CC3)c2)s1 (single isomer, unassigned) [Example 97, 3-(trans-2-((cyclopropylmethyl)amino)cyclopropyl)-N-(5-methyl-1,3,4-thiadiazol-2-yl)benzamide hydrochloride (Optical Isomer, Retention Time Short)] | 105.2^c % | 105.0^c % | 100.7^c % | – | – | – | – | – | – | – | – | – | – | platelet number, percentage of compound administration group compared to control group, mean ([1]; 1 mg/kg): 99.4^b %; red blood cell number, percentage of compound administration group compared to control group, mean ([1]; 1 mg/kg): 102.7^b %; white blood cell number, percentage of compound administration group compared to control group, mean ([1]; 1 mg/kg): 114.4^b %; Gad1 H3K4me2 induction activity (%) ([2]; compound 1 μM): 100%; Gad1 H3K4me2 induction activity (%) ([2]; compound 10 μM): 111% |
